# Where a name gives a salt, the structure may show the parent alone.
# Assays:
# [1] = target: T1, human B1R receptor (bradykinin 1 receptor) (Homo sapiens, UniProt P46663); assay: FLIPR Ca2+ assay (Fluo-4) on CHO K1 cells stably transfected with the human B1R gene; % activation and % inhibition at 10 μM; assay type: cell-based; conditions: CHO K1 hB1R cells, Ca2+ inflow after 0.5 nM Lys-Des-Arg9-bradykinin; for inhibition at 10 µM: CHO-K1, test substance 10 μM, read-out: B1R antagonism, human [10 μM] % inhibition
# T1 construct: host or cells: CHO K1 cells (hB1R cells)
# T1 sequence (P46663 1-353): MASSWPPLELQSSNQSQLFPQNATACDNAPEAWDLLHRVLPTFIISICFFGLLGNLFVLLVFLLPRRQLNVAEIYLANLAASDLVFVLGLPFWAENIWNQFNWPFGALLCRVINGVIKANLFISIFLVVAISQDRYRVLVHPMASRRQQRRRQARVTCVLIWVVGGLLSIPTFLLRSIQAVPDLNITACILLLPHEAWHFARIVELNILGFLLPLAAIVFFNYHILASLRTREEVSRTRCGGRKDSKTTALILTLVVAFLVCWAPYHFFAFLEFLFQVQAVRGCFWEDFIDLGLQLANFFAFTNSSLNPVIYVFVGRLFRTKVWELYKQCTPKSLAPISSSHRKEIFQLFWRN
# Summary of the method: (§1)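 CHO K1 cells stably expressing human or rat B1R, Fluo-4 loaded, read by FLIPR (peak fluorescence). Compound at 10 µM first gives % activation versus agonist; after 10 min, agonist (human: 0.5 nM Lys-Des-Arg9-bradykinin; rat: 100 nM Des-Arg9-bradykinin) gives % inhibition relative to maximal inhibition.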
# [2] = target: T2, B1R receptor of the rat (bradykinin 1 receptor) (Rattus norvegicus, UniProt P97583); assay: FLIPR Ca2+ assay (Fluo-4) on CHO K1 cells stably transfected with the B1R gene of the rat; % activation and % inhibition at 10 μM; assay type: cell-based; conditions: CHO K1 rB1R cells, Ca2+ inflow after 100 nM Des-Arg9-bradykinin; for inhibition at 10 µM: CHO-K1, test substance 10 μM, read-out: B1R antagonism, rat [10 μM] % inhibition
# T2 construct: host or cells: CHO K1 cells (rB1R cells)
# T2 sequence (P97583 1-337): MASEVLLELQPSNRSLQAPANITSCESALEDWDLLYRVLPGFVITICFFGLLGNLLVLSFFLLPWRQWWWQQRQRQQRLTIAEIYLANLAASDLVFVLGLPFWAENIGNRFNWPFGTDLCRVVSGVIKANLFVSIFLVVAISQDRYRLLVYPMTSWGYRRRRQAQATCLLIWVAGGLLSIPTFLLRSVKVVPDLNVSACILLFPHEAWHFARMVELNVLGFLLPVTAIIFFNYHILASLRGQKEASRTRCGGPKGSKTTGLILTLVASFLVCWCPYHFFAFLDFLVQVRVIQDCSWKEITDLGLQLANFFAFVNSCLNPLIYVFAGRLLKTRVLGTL
# Summary of the method: as §1
# [3] = system: formalin-induced nociceptive reaction (phase 2); assay: Formalin test mouse (phase 2, chronic pain component); assay type: in vivo; conditions: phase 2 (21 to 24 min after formalin), i.v., 10 mg/kg, 5 min before formalin, change in percent compared with vehicle control
# Procedure: The formalin test (Dubuisson, D. and Dennis, S. G., 1977, Pain, 4, 161-174) represents a model for both acute and chronic pain. By means of a single formalin injection into the dorsal side of a rear paw, a biphasic nociceptive reaction is induced in freely mobile test animals; the reaction is detected by observing three behavior patterns which are clearly distinguishable from one another. The reaction is two-phase: phase 1=immediate reaction (duration up to 10 min., shaking of the paw, licking), phase 2=late reaction (after a rest phase; likewise shaking of the paw, licking; duration up to 60 min.). […] In the studies described here, the chronic pain component (phase 2) has been evaluated.
# Formalin in a volume of 20 μl and a concentration of 1% is administered subcutaneously into the dorsal side of the right rear paw of each animal. The specific changes in behavior, such as lifting, shaking or licking of the paw (score 3, Dubuisson & Dennis, 1977), are observed and recorded in the observation period of 21 to 24 min following the formalin injection.
# The behavior of the animals after administration of the substance (n=10 per dose of substance) was compared with a control group which received vehicle (n=10). Based on the quantification of the pain behavior, the activity of the test substance in the formalin test was determined as the change, in percent, compared with the control. […]
# [4] = test substance 10 μM, hydrochloride
Structure (SMILES),"B1R antagonism, human [10 μM] % inhibition [1, 4] [%]","B1R antagonism, rat [10 μM] % inhibition [2, 4] [%]",Substance action: antinociception [3] [% antinociception],inhibition at 10 µM [1] [%],inhibition at 10 µM [2] [%]
"COc1cc(C)c(S(=O)(=O)N2CCCCC2COCC(=O)N2CCC(O)(c3cccnc3)CC2)c(C)c1 (stereo not shown) [Example 87, 1-(4′-hydroxy-3′,4′,5′,6′-tetrahydro-2′H-[3,4′]bipyridinyl-1′-yl)-2-[1-(4-methoxy-2,6-dimethyl-phenylsulfonyl)-piperidin-2-ylmethoxy]-ethanone; hydrochloride]",101.8,101.93,23,–,–
"COc1cc(C)c(S(=O)(=O)N(C)CCOCC(=O)N2CCC(O)(Cc3cccnc3)CC2)c(C)c1 [Example 279, N-(2-(2-(4-hydroxy-4-(pyridin-3-ylmethyl)piperidin-1-yl)-2-oxoethoxy)ethyl)-4-methoxy-N,2,6-trimethylphenylsulfonamide hydrochloride]",–,–,–,103,105
"COc1cc(C)c(S(=O)(=O)N(C)CCOCC(=O)N2CCC(O)(Cc3ccncc3)CC2)c(C)c1 [Example 280, N-(2-(2-(4-hydroxy-4-(pyridin-4-ylmethyl)piperidin-1-yl)-2-oxoethoxy)ethyl)-4-methoxy-N,2,6-trimethylphenylsulfonamide]",–,–,–,100,100

# From patent US8580965B2, “Substituted sulfonamide compounds” (Gruenenthal GmbH, priority 2006, dated 2013)
